Source: paper PMC11085086, “Microwave-Assisted Atom Transfer Radical Cyclization in the Synthesis of 3,3-Dichloro-γ- and δ-Lactams from N-Alkenyl-Tethered Trichloroacetamides Catalyzed by RuCl2(PPh3)3 and Their Cytotoxic Evaluation” (Molecules, 2024)

Tests used:
[1] = Hemolysis assay with human erythrocyte suspension; format: cell-based; settings: human, washed human erythrocyte suspension, PBS pH 7.4, read-out: degree of hemolysis
Protocol: Human blood samples were obtained from the Banc de Sang i Teixits de Barcelona (Spain) from the Catalan Department of Health. Blood was deposited in tubes with the anticoagulant EDTA-K3. Blood samples were centrifuged at 3000 rpm and 4 °C for 10 min (Megafuge 2.0 R. Heraeus Instruments, Hanau, Germany) to induce sedimentation. Plasma was extracted with a Pasteur pipette. Next, the residual pellet was washed with PBS at pH 7.4. This procedure was repeated three times to remove residual leukocytes and platelets and to concentrate the erythrocytes. Following the last wash, the erythrocyte suspension was diluted (1:1) in PBS at pH 7.4 to obtain a suitable erythrocyte suspension (cell density of 8 × 10^9 cell/mL).
The hemolysis assay determined the capability of different compounds to induce the hemolysis of the erythrocyte membrane. Stock solutions of each compound at 1 mg/mL in PBS at pH 7.4 were prepared. Different volumes (10–80 μL) were placed in polystyrene tubes, and an aliquot of 25 µL of the erythrocyte suspensions was added to each tube. The final volume was 1 mL. The tubes were incubated at room temperature under rotatory conditions. Then, the tubes were centrifuged at 10,000 rpm for 5 min. The supernatants’ absorbance at 540 nm (Shimadzu UV-160A, Shimadzu, Duisburg, Germany) was compared with that of the positive (erythrocytes hemolyzed with distilled water) and negative (erythrocyte suspension in PBS at pH 7.4.) controls.
The degree of hemolysis was determined using the following equation:Hemolysis (%) = 100 × (Abs − Abs0)/(Abs100 − Abs0) where Abs, Abs0 and Abs100 are the absorbance of the test samples, of the suspension treated with isotonic phosphate–buffered saline (PBS) and of the suspension of complete hemolysis treated with distilled water, respectively.

[2] = test system: murine Swiss albino fibroblasts (3T3); experiment: Cell viability assay, MTT endpoint, 3T3; format: cell-based; settings: Mus musculus, Fibroblast, 3T3, 24 h incubation, 10–250 µg/mL
Protocol: (§1) The murine Swiss albino fibroblasts (3T3), the human breast adenocarcinoma (MCF-7), the human epithelial carcinoma (HeLa) and the squamous cell carcinoma (A431) cell lines were obtained from Celltec UB. Cells were grown in DMEM medium (4.5 g/L glucose) supplemented with 10% (v/v) FBS, 2 mM L-glutamine, 100 U/mL penicillin and 100 µg/mL streptomycin at 37 °C, 5% CO2. Cells were routinely cultured in 75 cm^2 culture flasks and were trypsinized using trypsin–EDTA when the cells reached approximately 80% confluence. The trypan blue assay, which allows for a direct identification and enumeration of the live (unstained) and dead (blue) cells in the cell population, was used to evaluate the viability of the cells in the cell suspension obtained.
(§2) 3T3 (1 × 10^5 cells/mL), A431, HeLa and MCF-7 cells (5 × 10^4 cells/mL) were grown at defined densities in the 60 central wells of a 96-well plate. Cells were incubated for 24 h in 5% CO2 at 37 °C. Then, the spent medium was removed, and cells were incubated for 24 h with their corresponding compound solutions (1 mg/mL) previously diluted in a minimum amount of DMF (dimethylformamide) and then in DMEM medium supplemented with 5% FBS (100 µL) at the required concentration range (10–250 µg/mL). The viability of the cells upon incubation with the lactam derivatives was assayed using 2 different endpoints: NRU and MTT.
(§3) Only living cells can reduce the yellow tetrazolium salt 3-(4,5-dimethyl-2-thiazolyl)-2,5-diphenyltetrazolium bromide (MTT) to insoluble purple formazan crystals. After a 24 h incubation of the cells with their corresponding NPs, the medium was removed and 100 µL of MTT (Sigma-Aldrich, St. Louis, USA) in PBS (5 mg/mL) diluted 1:10 in culture medium without phenol red and without FBS (Lonza, Verviers, Belgium) was added to the cells. After 3 h of incubation, the medium was removed. Thereafter, 100 µL of DMSO (Sigma-Aldrich, St. Louis, MO, USA) was added to each well to dissolve the purple formazan crystals. Agitation and determination of the absorbance of the extracted solution were performed under the same conditions as described in NRU Assay section. Finally, the effect of each treatment was calculated as the percentage of tetrazolium salt’s reduction by viable cells relative to control cells (cells without any treatment).
(§4) The corresponding half-maximal inhibitory concentration (IC50) values for the different formulations as a function of the cell line and endpoint were determined from the fitting of concentration-dependent viability curves. The corresponding selectivity indexes toward tumoral cells were calculated using the following ratio: SI = IC50 (non-tumoral cell line)/IC50 (tumoral cell line) where 3T3 fibroblasts were used as close representative cells under non-tumoral conditions. Moreover, pseudo selectivity indexes toward tumoral cells were calculated considering the discrete cellular responses at the maximum tested concentration (250 µg/mL).

[3] = Cell viability assay, MTT endpoint, A431; format: cell-based; settings: human, A431 squamous cell carcinoma cells, A431, highest assayed concentration 250 µg/mL, 24 h
Protocol: as §1, §2, §3, §4

[4] = test system: squamous cell carcinoma (A431) cell line; experiment: Cell viability assay, MTT endpoint, A431; format: cell-based; settings: for SI250 (selective toxicity at 250 µg/mL): A431 compared to 3T3, 250 µg/mL, 24 h
Protocol: as §1, §2, §3, §4

[5] = test system: human epithelial carcinoma (HeLa) cell line; experiment: Cell viability assay, MTT endpoint, HeLa; format: cell-based; settings: Homo sapiens, HeLa, 24 h, 24 h incubation, 10–250 µg/mL
Protocol: as §1, §2, §3, §4

[6] = test system: human breast adenocarcinoma (MCF-7) cell line; experiment: Cell viability assay, MTT endpoint, MCF-7; format: cell-based; settings: MTT; for IC50: Homo sapiens, MCF7, 24 h incubation, 10–250 µg/mL
Protocol: as §1, §2, §3, §4

[7] = test system: murine Swiss albino fibroblasts (3T3); experiment: Cell viability assay, NRU endpoint, 3T3; format: cell-based; settings: Mus musculus, Fibroblast, 3T3, 24 h incubation, 10–250 µg/mL
Protocol: as §1, §2
(§5) The neutral red uptake (NRU) assay is based on the accumulation of dye in the lysosomes of viable cells. After the cells were incubated for 24 h with the corresponding systems, the medium was removed, and the solutions were incubated with the NR dye (Sigma-Aldrich, St. Louis, MO, USA) solution (50 µg/mL) dissolved in the medium, without FBS and without phenol red (Lonza, Verviers, Belgium), for 3 h. Cells were then washed with sterile PBS, followed by the addition of 100 µL of a solution containing 50% absolute ethanol and 1% acetic acid in distilled water to extract the dye. To promote the total dissolution of the dye, plates were placed in a microtiter-plate shaker for 5 min at room temperature. The absorbance of the resulting solutions was measured at 550 nm (Bio-Rad 550 microplate reader, Bio-Rad California, Hercules, CA, USA). Finally, the effect of each treatment was calculated as the percentage of dye uptake by viable cells relative to the control cells (cells without any treatment).
as §4

[8] = test system: squamous cell carcinoma (A431) cell line; experiment: Cell viability assay, NRU endpoint, A431; format: cell-based; settings: for IC50: Homo sapiens, A-431, 24 h, A431, 24 h incubation, 10–250 µg/mL
Protocol: as §1, §2, §5, §4

[9] = test system: human epithelial carcinoma (HeLa) cell line; experiment: Cell viability assay, NRU endpoint, HeLa; format: cell-based; settings: 24 h incubation, 10–250 µg/mL
Protocol: as §1, §2, §5, §4

[10] = test system: human breast adenocarcinoma (MCF-7) cell line; experiment: Cell viability assay, NRU endpoint, MCF-7; format: cell-based; settings: for IC50: Homo sapiens, MCF7, 24 h incubation, 10–250 µg/mL; for SI250 (selective toxicity at 250 µg/mL): MCF-7 compared to 3T3, 250 µg/mL, 24 h
Protocol: as §1, §2, §5, §4

[11] = Cell viability assay, NRU endpoint, cell line not specified; format: cell-based; settings: up to 250 µg/mL, read-out: minimum cell viability values
Protocol: as §1, §2, §5

Row | melting point [°C] | IC50 [5] [µg/mL] | IC50 [6] [µg/mL] | IC50 [8] [µg/mL] | IC50 [9] [µg/mL] | IC50 [10] [µg/mL] | IC50 ([4]; Homo sapiens, A-431, 24 h, A431, 24 h incubation, 10–250 µg/mL) [µg/mL] | SMILES | hemolysis at 10 µg/mL [1] [%] | hemolysis at 80 µg/mL [1] [%] | IC50 [2] [µg/mL] | viability at 24 h, 250 µg/mL [3] [%] | SI250 (selective toxicity at 250 µg/mL) [4] | IC50 [7] [µg/mL] | SI250 (selective toxicity at 250 µg/mL) [10] | viability at 24 h [11] [%] | SI250 (selective toxicity at 250 µg/mL) ([6]; MCF-7 compared to 3T3, 250 µg/mL, 24 h) | SI250 (selective toxicity at 250 µg/mL) ([8]; A431 compared to 3T3, 250 µg/mL, 24 h)
1 | 116 to 118 | – | – | – | – | – | – | O=C1N(Cc2ccccc2)[C@@H]2CC[C@@H](Cl)[C@@H](C2)C1(Cl)Cl (racemic) [2k, (1RS,5RS,6RS)-2-Benzyl-4,4,6-trichloro-2-azabicyclo[3.3.1] nonan-3-one] | – | – | – | – | – | – | – | – | – | –
2 | – | > 250 | > 250 | > 250 | > 250 | > 250 | – | O=C1N(c2ccccc2)CC(CCl)C1(Cl)Cl (centres unmarked) [2d, 3,3-Dichloro-4-(chloromethyl)-1-phenylpyrrolidin-2-one] | 0.005 | 0.1 | > 250 | 50 | 1.4 | > 250 | one | 80 to 85 | – | –
3 | – | > 250 | > 250 | > 250 | > 250 | > 250 | > 250 | CC(C)(C)N1CCC(CCl)C(Cl)(Cl)C1=O (centres unmarked) [2i, 1-(tert-Butyl)-3,3-dichloro-4-(chloromethyl)piperidin-2-one] | 0.003 | ~0.07 | > 250 | – | 1.1 | > 250 | one | 70 | one | 1.1
